Test results as given in PMC11859928, “Design, Synthesis, and Antiproliferative Activity of Novel Indole/1,2,4-Triazole Hybrids as Tubulin Polymerization Inhibitors” (Pharmaceuticals, 2025).
Read-outs that look alike come from different tables or passages of the source.

Experiments:
HL-60(TB) = assay: NCI five-dose assay; assay type: cell-based, human; settings: for CC50 / GI50: Homo sapiens; for CC50: read-out: LC50 (the source's name); for GI50: read-out: GI50 Conc. per Cell Lines
RPMI-8226 = assay: NCI five-dose assay; assay type: cell-based, human; settings: for CC50 / GI50: Homo sapiens; for CC50: read-out: LC50 (the source's name); for GI50: read-out: GI50 Conc. per Cell Lines
HOP-92 = assay: NCI five-dose assay; assay type: cell-based, human; settings: for CC50 / GI50: Homo sapiens; for CC50: read-out: LC50 (the source's name); for GI50: read-out: GI50 Conc. per Cell Lines
HCC-2998 = assay: NCI five-dose assay; assay type: cell-based, human; settings: for CC50 / GI50: Homo sapiens; for CC50: read-out: LC50 (the source's name); for GI50: read-out: GI50 Conc. per Cell Lines
HCT-15 = assay: NCI five-dose assay; assay type: cell-based, human; settings: for CC50 / GI50: Homo sapiens; for CC50: read-out: LC50 (the source's name); for GI50: read-out: GI50 Conc. per Cell Lines
HT29 = assay: NCI five-dose assay; assay type: cell-based, human; settings: for CC50 / GI50: Homo sapiens, HT-29; for CC50: read-out: LC50 (the source's name); for GI50: read-out: GI50 Conc. per Cell Lines
SF-295 = assay: NCI five-dose assay; assay type: cell-based, human; settings: for CC50 / GI50: Homo sapiens; for CC50: read-out: LC50 (the source's name); for GI50: read-out: GI50 Conc. per Cell Lines
SNB-19 = assay: NCI five-dose assay; assay type: cell-based, human; settings: for CC50 / GI50: Homo sapiens; for CC50: read-out: LC50 (the source's name); for GI50: read-out: GI50 Conc. per Cell Lines
SK-MEL-28 = assay: NCI five-dose assay; assay type: cell-based, human; settings: for CC50 / GI50: Homo sapiens; for CC50: read-out: LC50 (the source's name); for GI50: read-out: GI50 Conc. per Cell Lines
UO-31 = assay: NCI five-dose assay; assay type: cell-based, human; settings: for CC50 / GI50: Homo sapiens; for CC50: read-out: LC50 (the source's name); for GI50: read-out: GI50 Conc. per Cell Lines
MDA-MB-468 = assay: NCI five-dose assay; assay type: cell-based, human; settings: for LC50 / GI50: Homo sapiens; for GI50: read-out: GI50 Conc. per Cell Lines
[1] = test system: Non-small cell lung cancer subpanel; assay: NCI five-dose assay, subpanel mean; assay type: cell-based, human; settings: for GI50: Homo sapiens, read-out: GI50 Subpanel MID b; for GI50 Selectivity Ratio (MID a/MID b): Non-small cell lung cancer subpanel
[2] = test system: MDA-MB 231 breast cancer cells; assay: Cell cycle analysis; assay type: cell-based; settings: MDA-MB 231, 24 h, IC50 concentration of 7i
Description: The impact of compound 7i on cell cycle progression was investigated in MDA-MB 231 breast cancer cells. […] The cell line was handled with PI/Annexin V, and flow cytometry was utilizing a BD FACS Caliber. […] This indicates a cell cycle arrest at the G1 phase transition.
(§1) The MDA-MB231 breast cancer cell line was used for cell cycle study and apoptosis detection. The assay was performed as previously documented (Appendix A).

MDA-MB 231 cell = assay: Apoptosis induction assay (Annexin V/PI); assay type: cell-based; settings: MDA-MB 231, 24 h
Description: The MDA-MB 231 cell was labeled with Annexin V/PI, cultured for 24 h, and examined to assess the capacity of 7i to induce apoptosis.
as §1

[3] = HOP-92, Non-small cell lung cancer

SMILES: O/N=C(\CSc1nnc(-c2c[nH]c3ccccc23)n1-c1ccccc1)c1ccc(Br)cc1 [Compound 7i, (Z)-2-((5-(1H-Indol-3-yl)-4-phenyl-4H-1,2,4-triazol-3-yl)thio)-1-(4-bromophenyl) Ethanone Oxime]
- CC50 (HL-60(TB); Leukemia, 48 h): > 100 µM
- GI50 (HL-60(TB); Leukemia): 1.92 µM
- TGI Conc. per Cell Lines (HL-60(TB); Leukemia): 4.55 µM
- CC50 (RPMI-8226; RPMI-8226, Leukemia, 48 h): > 100 µM
- GI50 (RPMI-8226; RPMI-8226, Leukemia): 2.45 µM
- TGI Conc. per Cell Lines (HOP-92; [3]): 24.10 µM
- CC50 (HOP-92; HOP-92, Non-small cell lung cancer, 48 h): > 100 µM
- GI50 (HOP-92; [3]): 3.66 µM
- TGI Conc. per Cell Lines (HCC-2998; HCC-2998, Colon cancer): 12.30 µM
- CC50 (HCC-2998; HCC-2998, Colon cancer, 48 h): 35.8 µM
- GI50 (HCC-2998; HCC-2998, Colon cancer): 3.36 µM
- TGI Conc. per Cell Lines (HCT-15; HCT-15, Colon cancer): 4.72 µM
- CC50 (HCT-15; HCT-15, Colon cancer, 48 h): 12.1 µM
- GI50 (HCT-15; HCT-15, Colon cancer): 2.11 µM
- TGI Conc. per Cell Lines (HT29; HT29, Colon cancer): 5.03 µM
- CC50 (HT29; HT29, Colon cancer, 48 h): 17.8 µM
- GI50 (HT29; HT29, Colon cancer): 2.23 µM
- CC50 (SF-295; SF-295, CNS cancer, 48 h): 13.6 µM
- GI50 (SF-295; SF-295, CNS cancer): 1.93 µM
- TGI Conc. per Cell Lines (SF-295; SF-295, CNS cancer): 4.70 µM
- CC50 (SNB-19; SNB-19, CNS cancer, 48 h): 84.5 µM
- GI50 (SNB-19; SNB-19, CNS cancer): 4.32 µM
- TGI Conc. per Cell Lines (SNB-19; SNB-19, CNS cancer): 19.80 µM
- CC50 (SK-MEL-28; SK-MEL-28, Melanoma, 48 h): 44.8 µM
- GI50 (SK-MEL-28; SK-MEL-28, Melanoma): 3.4 µM
- TGI Conc. per Cell Lines (SK-MEL-28; SK-MEL-28, Melanoma): 12.50 µM
- CC50 (UO-31; UO-31, Renal cancer, 48 h): 34.3 µM
- GI50 (UO-31; UO-31, Renal cancer): 2.29 µM
- TGI Conc. per Cell Lines (UO-31; UO-31, Renal cancer): 7.81 µM
- LC50 (MDA-MB-468; MDA-MB-468, Breast cancer, 48 h): 6.32 µM
- GI50 (MDA-MB-468; MDA-MB-468, Breast cancer): 1.72 µM
- TGI Conc. per Cell Lines (MDA-MB-468; MDA-MB-468, Breast cancer): 3.30 µM
- GI50 ([1]; average sensitivity of all cell lines of the Non-small cell lung cancer subpanel): 3.23 µM
- GI50 Selectivity Ratio (MID a/MID b) [1]: 0.87
- cells in G0/G1 phase (%DIP G1) [2]: 83%
- necrosis percentage (PI/Annexin upper left quadrant) (MDA-MB 231 cell): 3.88%

SMILES: O/N=C(\CSc1nnc(-c2c[nH]c3ccccc23)n1-c1ccccc1)c1ccc(Cl)cc1 [Compound 7j, (Z)-2-((5-(1H-Indol-3-yl)-4-phenyl-4H-1,2,4-triazol-3-yl)thio)-1-(4-chlorophenyl) Ethanone Oxime]
- GI50 (HL-60(TB); five dose levels): 2.17 µM
- CC50 (HL-60(TB); five dose levels): > 100 µM
- TGI Conc. per Cell Lines (HL-60(TB); five dose levels): 6.34 µM
- GI50 (RPMI-8226; RPMI-8226, five dose levels): 2.38 µM
- CC50 (RPMI-8226; RPMI-8226, five dose levels): > 100 µM
- TGI Conc. per Cell Lines (RPMI-8226; RPMI-8226, five dose levels): 7.29 µM
- TGI Conc. per Cell Lines (HOP-92; HOP-92, five dose levels): 37.6 µM
- GI50 (HOP-92; HOP-92, five dose levels): 3.84 µM
- CC50 (HOP-92; HOP-92, five dose levels): > 100 µM
- GI50 (HCC-2998; HCC-2998, five dose levels): 4.74 µM
- CC50 (HCC-2998; HCC-2998, five dose levels): > 100 µM
- TGI Conc. per Cell Lines (HCT-15; HCT-15, five dose levels): 13.6 µM
- GI50 (HCT-15; HCT-15, five dose levels): 3.2 µM
- CC50 (HCT-15; HCT-15, five dose levels): > 100 µM
- TGI Conc. per Cell Lines (HT29; HT29, five dose levels): 11.8 µM
- GI50 (HT29; HT29, five dose levels): 3.04 µM
- CC50 (HT29; HT29, five dose levels): > 100 µM
- GI50 (SF-295; SF-295, five dose levels): 3.11 µM
- CC50 (SF-295; SF-295, five dose levels): > 100 µM
- TGI Conc. per Cell Lines (SF-295; SF-295, five dose levels): 13.4 µM
- GI50 (SNB-19; SNB-19, five dose levels): 6.89 µM
- CC50 (SNB-19; SNB-19, five dose levels): > 100 µM
- TGI Conc. per Cell Lines (SNB-19; SNB-19, five dose levels): 45.2 µM
- GI50 (SK-MEL-28; SK-MEL-28, five dose levels): 4.41 µM
- CC50 (SK-MEL-28; SK-MEL-28, five dose levels): 57.7 µM
- TGI Conc. per Cell Lines (SK-MEL-28; SK-MEL-28, five dose levels): >100 µM
- GI50 (UO-31; UO-31, five dose levels): 2.88 µM
- CC50 (UO-31; UO-31, five dose levels): 71.1 µM
- TGI Conc. per Cell Lines (UO-31; UO-31, five dose levels): 15.7 µM
- LC50 (MDA-MB-468; MDA-MB-468, five dose levels): 46 µM
- GI50 (MDA-MB-468; MDA-MB-468, five dose levels): 1.72 µM
- TGI Conc. per Cell Lines (MDA-MB-468; MDA-MB-468, five dose levels): 3.47 µM
- GI50 ([1]; Non-small cell lung cancer, average sensitivity of all cell lines of the subpanel): 3.86 µM
- GI50 Selectivity Ratio (MID a/MID b) [1]: 0.945
